# From PubChem BioAssay AID328 (DTP/NCI, 2004)
# “And” between values parts separate entries of the source, which are not always exact repeats. Equal values may be shown once. Toxic doses and inconclusive results are not listed.
# Tested on: BDF1 mice, P388 leukemia ip, median survival T/C
# Assay: NCI In Vivo Anticancer Drug Screen. Data for tumor model P388 Leukemia (intraperitoneal) in B6D2F1 (BDF1) mice
# Settings: endpoint: median survival time, higher = longer survival
# Procedure, shortened: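 Mice carrying the transplantable tumour receive compound or vehicle. Survival is followed in each arm, and the treated measure is divided by the vehicle measure.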
# [1] = dose: 100.0 mg/kg/injection, schedule: Q01DX009 (ip), vehicle: saline with Tween-80
# [2] = dose: 100.0 mg/kg/injection, schedule: Q04DX003 (ip), vehicle: saline with Tween-80
# [3] = dose: 12.5 mg/kg/injection, schedule: Q01DX009 (ip), vehicle: saline with Tween-80
# [4] = dose: 25.0 mg/kg/injection, schedule: Q01DX009 (ip), vehicle: saline with Tween-80
# [5] = dose: 50.0 mg/kg/injection, schedule: Q01DX009 (ip), vehicle: saline with Tween-80
# [6] = dose: 100.0 mg/kg/injection, schedule: Q04DX003 (ip), vehicle: saline sonified
# [7] = dose: 200.0 mg/kg/injection, schedule: Q04DX003 (ip), vehicle: saline sonified
# [8] = dose: 400.0 mg/kg/injection, schedule: Q04DX003 (ip), vehicle: saline sonified
# [9] = dose: 200.0 mg/kg/injection, schedule: Q01DX009 (ip), vehicle: saline with Tween-80
# [10] = dose: 25.0 mg/kg/injection, schedule: Q01DX009 (ip), vehicle: saline
# [11] = dose: 50.0 mg/kg/injection, schedule: Q01DX009 (ip), vehicle: saline
# [12] = dose: 100.0 mg/kg/injection, schedule: Q01DX009 (ip), vehicle: saline
# [13] = dose: 100.0 mg/kg/injection, schedule: Q04DX003 (ip), vehicle: saline
# [14] = dose: 200.0 mg/kg/injection, schedule: Q01DX009 (ip), vehicle: saline
# [15] = dose: 200.0 mg/kg/injection, schedule: Q04DX003 (ip), vehicle: saline
# [16] = dose: 400.0 mg/kg/injection, schedule: Q04DX003 (ip), vehicle: saline
# [17] = dose: 100.0 mg/kg/injection, schedule: Q04DX003 (ip), vehicle: Klucel (hydroxypropylcellulose) (HPC)
# [18] = dose: 200.0 mg/kg/injection, schedule: Q04DX003 (ip), vehicle: Klucel (hydroxypropylcellulose) (HPC)
# [19] = dose: 400.0 mg/kg/injection, schedule: Q04DX003 (ip), vehicle: Klucel (hydroxypropylcellulose) (HPC)
# [20] = dose: 50.0 mg/kg/injection, schedule: Q01DX005 (ip), vehicle: saline with Tween-80
# [21] = dose: 6.25 mg/kg/injection, schedule: Q01DX009 (ip), vehicle: saline with Tween-80
# [22] = dose: 12.5 mg/kg/injection, schedule: Q04DX003 (ip), vehicle: saline
# [23] = dose: 25.0 mg/kg/injection, schedule: Q04DX003 (ip), vehicle: saline
# [24] = dose: 50.0 mg/kg/injection, schedule: Q04DX003 (ip), vehicle: saline
# [25] = dose: 100.0 mg/kg/injection, schedule: Q01DX005 (ip), vehicle: saline with Tween-80
# [26] = dose: 200.0 mg/kg/injection, schedule: Q01DX005 (ip), vehicle: saline with Tween-80
compound,measurement,setting,value
CC1=CC(=O)NP(=O)(Oc2ccc3ccccc3c2)N1 (stereo not drawn),T/C,"dose: 25.0 mg/kg/injection, schedule: Q04DX003 (ip), vehicle: saline + alcohol",106 % of control
same,T/C,"dose: 50.0 mg/kg/injection, schedule: Q04DX003 (ip), vehicle: saline + alcohol",98 % of control
same,T/C,"dose: 100.0 mg/kg/injection, schedule: Q04DX003 (ip), vehicle: saline + alcohol",100 % of control
same,T/C,"dose: 200.0 mg/kg/injection, schedule: Q04DX003 (ip), vehicle: saline + alcohol",94 % of control
same,T/C,"dose: 400.0 mg/kg/injection, schedule: Q04DX003 (ip), vehicle: saline + alcohol",95 % of control
C/C(=N/N=C(N)N)c1ccc(NC(=O)Nc2ccc(/C(C)=N/N=C(N)N)cc2)cc1,T/C,"dose: 66.0 mg/kg/injection, schedule: Q04DX003 (ip), vehicle: saline with Tween-80",154 % of control
same,T/C,[1],90 % of control
same,T/C,[2],150 % of control
same,T/C,"dose: 150.0 mg/kg/injection, schedule: Q04DX003 (ip), vehicle: saline with Tween-80",159 % of control
CC1CC2C(CC1O)C2(C)C (stereo not drawn),T/C,[3],100 % of control
same,T/C,[4],95 % of control
same,T/C,[5],109 % of control
same,T/C,[6],111 % of control
same,T/C,[7],111 % of control
same,T/C,[8],100 % of control
CCN(CC)c1ccc(/C=C2/C=Cc3ccccc32)cc1,T/C,[6],95 % of control
same,T/C,[7],100 % of control
same,T/C,[8],100 % of control
COC(=O)/C=C1\C(C(=O)OC)=Cc2ccccc2N1C,T/C,[3],100 % of control
same,T/C,[4],100 % of control
same,T/C,"dose: 25.0 mg/kg/injection, schedule: Q04DX003 (ip), vehicle: saline with Tween-80",104 % of control
same,T/C,[5],105 % of control
same,T/C,"dose: 50.0 mg/kg/injection, schedule: Q04DX003 (ip), vehicle: saline with Tween-80",100 % of control
same,T/C,[1],91 % of control
same,T/C,[2],87 % of control and 90 % of control
same,T/C,"dose: 200.0 mg/kg/injection, schedule: Q04DX003 (ip), vehicle: saline with Tween-80",87 % of control
COC1C(O)=C2C(=O)OC(C)(O)/C=C/C=C\C=C/C=C/C(c3ccccc3)NC(=O)/C=C/C=C/C=C/C=C/C2(C)C1O (stereo not drawn),T/C,"dose: 0.78 mg/kg/injection, schedule: Q01DX009 (ip), vehicle: Klucel (hydroxypropylcellulose) (HPC)",88 % of control
same,T/C,"dose: 1.56 mg/kg/injection, schedule: Q01DX009 (ip), vehicle: Klucel (hydroxypropylcellulose) (HPC)",107 % of control
same,T/C,"dose: 3.12 mg/kg/injection, schedule: Q01DX009 (ip), vehicle: Klucel (hydroxypropylcellulose) (HPC)",107 % of control
COC(=O)/C=C1\Sc2ccc(C(F)(F)F)cc2NC1=O,T/C,[5],91 % of control
same,T/C,[1],91 % of control
same,T/C,[9],91 % of control
O=C1CC=C(Nc2ccc(Br)cc2)C(=O)O1,T/C,[10],99 % of control
same,T/C,[11],101 % of control
same,T/C,[12],105 % of control
same,T/C,[13],112 % of control
same,T/C,[14],92 % of control
same,T/C,[15],91 % of control
same,T/C,"dose: 400.0 mg/kg/injection, schedule: Q01DX009 (ip), vehicle: saline",99 % of control
same,T/C,[16],107 % of control
O=[N+]([O-])c1ccc(N2CC2)c2c1no[n+]2[O-],T/C,"dose: 15.0 mg/kg/injection, schedule: Q04DX003 (ip), vehicle: saline with Tween-80",109 % of control
COc1ccc(-n2nc3c(c2-c2cccnc2)CCc2ccccc2-3)cc1,T/C,[17],103 % of control
same,T/C,[18],109 % of control
same,T/C,[19],105 % of control
COc1ccc(-c2cc(=O)c3c(O)c(OC)c(O)cc3o2)cc1,T/C,"dose: 10.0 mg/kg/injection, schedule: Q01DX010 (ip), vehicle: carboxymethylcellulose (CMC)",95 % of control
same,T/C,"dose: 20.0 mg/kg/injection, schedule: Q01DX010 (ip), vehicle: carboxymethylcellulose (CMC)",90 % of control
same,T/C,"dose: 80.0 mg/kg/injection, schedule: Q01DX010 (ip), vehicle: carboxymethylcellulose (CMC)",95 % of control
O=C(Nc1ccccc1)c1c(O)[nH]c(=S)[nH]c1=O,T/C,[20],194 % of control
COC(=O)N1CCC2OC2C1 (stereo not drawn),T/C,[11],99 % of control
same,T/C,[12],107 % of control
same,T/C,[14],100 % of control
O=Cc1ccc([N+](=O)[O-])s1,T/C,"dose: 3.13 mg/kg/injection, schedule: Q01DX009 (ip), vehicle: saline with Tween-80",99 % of control
same,T/C,[21],99 % of control and 118 % of control
same,T/C,[3],115 % of control
same,T/C,[4],123 % of control
same,T/C,[5],118 % of control
COc1cc2c(cc1OC)C(=O)Cc1ccc3c(c1CN(C)CC2)OCO3,T/C,"dose: 1.5 mg/kg/injection, schedule: Q01DX009 (ip), vehicle: saline sonified",95 % of control
same,T/C,"dose: 3.0 mg/kg/injection, schedule: Q01DX009 (ip), vehicle: saline sonified",100 % of control
same,T/C,"dose: 6.0 mg/kg/injection, schedule: Q01DX009 (ip), vehicle: saline sonified",112 % of control
O=[N+]([O-])c1cc2c3ccccc3ccc2c2ccccc12,T/C,"dose: 100.0 mg/kg/injection, schedule: Q01DX009 (ip), vehicle: Klucel (hydroxypropylcellulose) (HPC)",104 % of control
same,T/C,[17],100 % of control
same,T/C,"dose: 200.0 mg/kg/injection, schedule: Q01DX009 (ip), vehicle: Klucel (hydroxypropylcellulose) (HPC)",100 % of control
same,T/C,[18],100 % of control
same,T/C,"dose: 400.0 mg/kg/injection, schedule: Q01DX009 (ip), vehicle: Klucel (hydroxypropylcellulose) (HPC)",104 % of control
same,T/C,[19],100 % of control
NC(=S)/N=C\C(CC(O)C(O)C(O)CO)=N\NC(N)=S (stereo not drawn),T/C,[21],88 % of control and 97 % of control and 100 % of control
same,T/C,[3],99 % of control and 100 % of control and 108 % of control
same,T/C,[5],97 % of control and 115 % of control
Cc1ccc(C[N+](C)(C)C)c2ccccc12,T/C,[22],107 % of control
same,T/C,[23],105 % of control
same,T/C,[24],96 % of control
O=C1CN(Cc2ccccc2)CC(=O)N2Cc3ccccc3CN12,T/C,[25],101 % of control
same,T/C,[26],92 % of control
C=CC(C)C(C)(OCc1ccccc1)C(=O)O (stereo not drawn),T/C,[20],100 % of control
same,T/C,[25],113 % of control
same,T/C,[26],106 % of control
COc1cc2c(cc1OC)CC[N+](C)=C2,T/C,"dose: 3.12 mg/kg/injection, schedule: Q01DX009 (ip), vehicle: saline",102 % of control
same,T/C,"dose: 3.12 mg/kg/injection, schedule: Q04DX003 (ip), vehicle: saline",104 % of control
same,T/C,"dose: 6.25 mg/kg/injection, schedule: Q01DX009 (ip), vehicle: saline",105 % of control
same,T/C,"dose: 6.25 mg/kg/injection, schedule: Q04DX003 (ip), vehicle: saline",97 % of control and 122 % of control
same,T/C,"dose: 12.5 mg/kg/injection, schedule: Q01DX009 (ip), vehicle: saline",102 % of control
same,T/C,[22],95 % of control and 97 % of control
same,T/C,[10],102 % of control
same,T/C,[23],91 % of control
same,T/C,[11],91 % of control
same,T/C,[24],121 % of control
same,T/C,[13],100 % of control
O=[N+]([O-])c1ccccc1N/N=C\c1c(Cl)[nH]c2ccccc12,T/C,"dose: 200.0 mg/kg/injection, schedule: Q04DX002 (ip), vehicle: Klucel (hydroxypropylcellulose) (HPC)",90 % of control
same,T/C,"dose: 400.0 mg/kg/injection, schedule: Q04DX002 (ip), vehicle: Klucel (hydroxypropylcellulose) (HPC)",90 % of control
COc1ccc(/C=N/Nc2nc3ccc4ccccc4c3s2)cc1,T/C,[5],90 % of control
same,T/C,[1],101 % of control
same,T/C,[9],115 % of control
Cc1c(Cc2ccccc2)[n+](=O)c2ccccc2n1[O-],T/C,[17],100 % of control
same,T/C,[18],105 % of control
COc1cc2ccc3c(c2cc1OC)CN1CCc2cc4c(cc2C1C3)OCO4 (stereo not drawn),T/C,"dose: 44.0 mg/kg/injection, schedule: Q01DX009 (ip), vehicle: saline with Tween-80",115 % of control
same,T/C,[5],120 % of control
same,T/C,[13],118 % of control
same,T/C,[9],112 % of control
same,T/C,[15],100 % of control
same,T/C,[16],100 % of control
O=[N+]([O-])c1ccc(N=Cc2ccccc2)cc1,T/C,[17],100 % of control
same,T/C,[18],108 % of control
same,T/C,[19],108 % of control
